Test results: US9822114B2, “Tricyclic oxazolidinone antibiotic compounds” (Idorsia Pharmaceuticals Ltd, priority 2008, dated 2017)
Values after ≈ are worked out from the molar mass of the structure shown.

Test system: M. catarrhalis A894
Assay: Minimal inhibitory concentration (MIC), microdilution method in cation-adjusted Mueller-Hinton Broth (CLSI M7-A7)
Format: cell-based
Details: Moraxella catarrhalis, strain A894
Protocol: Minimal inhibitory concentrations (MICs; mg/1) were determined in cation-adjusted Mueller-Hinton Broth by a microdilution method following the description given in “Methods for Dilution Antimicrobial Susceptibility Tests for Bacteria that Grow Aerobically”, Approved standard, 7th ed., Clinical and Laboratory Standards Institute (CLSI) Document M7-A7, Wayne, Pa., USA, 2006.

## C[C@H]1[C@H](NCCC[C@@H]2CN(c3ccc4c(n3)NC(=O)CS4)C(=O)O2)c2c(F)ccc3ccc(=O)n1c23 (relative stereo) [Example 185, (1R*,2S*)-9-fluoro-2-methyl-1-{3-[(R)-2-oxo-3-(3-oxo-3,4-dihydro-2H-pyrido[3,2-b][1,4]thiazin-6-yl)-oxazolidin-5-yl]-propylamino}-1,2-dihydro-pyrrolo[3,2,1-ij]quinolin-4-one]
  MIC: ≤ 0.031 µg/mL

## Cl.O=C1CSc2ccc(N3C[C@@H](CCCN[C@@H]4c5c(F)ccc6ccc(=O)n(c56)[C@H]4C(=O)O)OC3=O)cc2N1 (relative stereo) [Example 186, (1R*,2R*)-9-fluoro-4-oxo-1-{3-[(R)-2-oxo-3-(3-oxo-3,4-dihydro-2H-benzo[1,4]thiazin-6-yl)-oxazolidin-5-yl]-propylamino}-1,2-dihydro-4H-pyrrolo[3,2,1-ij]quinoline-2-carboxylic acid hydrochloride]
  MIC: 0.5 µg/mL

## NC[C@H]1[C@H](NCCC[C@@H]2CN(c3ccc4c(c3)NC(=O)CS4)C(=O)O2)c2c(F)ccc3ccc(=O)n1c23 (relative stereo) [Example 188, (1R*,2S*)-2-aminomethyl-9-fluoro-1-{3-[(R)-2-oxo-3-(3-oxo-3,4-dihydro-2H-benzo[1,4]thiazin-6-yl)-oxazolidin-5-yl]-propylamino}-1,2-dihydro-pyrrolo[3,2,1-ij]quinolin-4-one]
  MIC: ≤ 0.031 µg/mL

## O=C1CSc2ccc(N3C[C@@H](CCNC[C@@H]4Cn5c(=O)ccc6nccc4c65)OC3=O)cc2N1 [Example 15, (4R)-4-({2-[(R)-2-oxo-3-(3-oxo-3,4-dihydro-2H-benzo[1,4]thiazin-6-yl)-oxazolidin-5-yl]-ethylamino}-methyl)-4,5-dihydro-pyrrolo[3,2,1-de][1,5]naphthyridin-7-one]
  MIC: ≤ 0.031 µg/mL

## O=C1CSc2ccc(N3C[C@@H](CCCN[C@H]4Cn5c(=O)ccc6nccc4c65)OC3=O)cc2N1 [Example 18, (4R)-4-{3-[(R)-2-oxo-3-(3-oxo-3,4-dihydro-2H-benzo[1,4]thiazin-6-yl)-oxazolidin-5-yl]-propylamino}-4,5-dihydro-pyrrolo[3,2,1-de][1,5]naphthyridin-7-one]
  MIC: ≤ 0.031 µg/mL

## O=C1COc2ccc(N3C[C@@H](CCCN[C@H]4Cn5c(=O)ccc6nccc4c65)OC3=O)cc2N1 [Example 19, (4R)-4-{3-[(R)-2-oxo-3-(3-oxo-3,4-dihydro-2H-benzo[1,4]oxazin-6-yl)-oxazolidin-5-yl]-propylamino}-4,5-dihydro-pyrrolo[3,2,1-de][1,5]naphthyridin-7-one]
  MIC: ≤ 0.031 µg/mL

## O=C1CSc2ccc(N3C[C@@H](CCCN[C@@H]4Cn5c(=O)ccc6nccc4c65)OC3=O)cc2N1 [Example 39, (S)-4-{3-[(R)-2-oxo-3-(3-oxo-3,4-dihydro-2H-benzo[1,4]thiazin-6-yl)-oxazolidin-5-yl]-propylamino}-4,5-dihydro-pyrrolo[3,2,1-de][1,5]naphthyridin-7-one]
  MIC: ≤ 0.031 µg/mL

## O=C1COc2ccc(N3C[C@@H](CCCN[C@@H]4Cn5c(=O)ccc6nccc4c65)OC3=O)cc2N1 [Example 40, (S)-4-{3-[(R)-2-oxo-3-(3-oxo-3,4-dihydro-2H-benzo[1,4]oxazin-6-yl)-oxazolidin-5-yl]-propylamino}-4,5-dihydro-pyrrolo[3,2,1-de][1,5]naphthyridin-7-one]
  MIC: 0.125 µg/mL (≈ 0.271 µM)

## O=C1CSc2ccc(N3C[C@H](CCN[C@@H]4Cn5c(=O)ccc6nccc4c65)OC3=O)cc2N1 [Example 41, (S)-4-{2-[(S)-2-oxo-3-(3-oxo-3,4-dihydro-2H-benzo[1,4]thiazin-6-yl)-oxazolidin-5-yl]-ethylamino}-4,5-dihydro-pyrrolo[3,2,1-de][1,5]naphthyridin-7-one]
  MIC: 0.5 µg/mL (≈ 1.08 µM)

## O=C1CSc2ccc(N3C[C@@H](CCCN[C@@H]4Cn5c(=O)cnc6cccc4c65)OC3=O)cc2N1 [Example 48, (S)-6-{3-[(R)-2-oxo-3-(3-oxo-3,4-dihydro-2H-benzo[1,4]thiazin-6-yl)-oxazolidin-5-yl]-propylamino}-5,6-dihydro-pyrrolo[1,2,3-de]quinoxalin-3-one]
  MIC: ≤ 0.031 µg/mL

## O=C1CSc2ccc(N3C[C@H](CCNC[C@H]4Cn5c(=O)ccc6ccc(F)c4c65)OC3=O)cc2N1 [Example 49, (S)-9-fluoro-1-({2-[(S)-2-oxo-3-(3-oxo-3,4-dihydro-2H-benzo[1,4]thiazin-6-yl)-oxazolidin-5-yl]-ethylamino}-methyl)-1,2-dihydro-pyrrolo[3,2,1-ij]quinolin-4-one]
  MIC: ≤ 0.031 µg/mL

## O=C1CSc2ccc(N3C[C@H](CCNC[C@@H]4Cn5c(=O)ccc6ccc(F)c4c65)OC3=O)cc2N1 [Example 50, (R)-9-fluoro-1-({2-[(S)-2-oxo-3-(3-oxo-3,4-dihydro-2H-benzo[1,4]thiazin-6-yl)-oxazolidin-5-yl]-ethylamino}-methyl)-1,2-dihydro-pyrrolo[3,2,1-ij]quinolin-4-one]
  MIC: ≤ 0.031 µg/mL

## O=C1CSc2ccc(N3C[C@@H](CCN[C@@H]4Cn5c(=O)cnc6cccc4c65)OC3=O)cc2N1 [Example 54, (S)-6-{2-[(R)-2-oxo-3-(3-oxo-3,4-dihydro-2H-benzo[1,4]thiazin-6-yl)-oxazolidin-5-yl]-ethylamino}-5,6-dihydro-pyrrolo[1,2,3-de]quinoxalin-3-one]
  MIC: 0.25 µg/mL (≈ 0.539 µM)

## O=C1CSc2ccc(N3C[C@H](CCN[C@@H]4Cn5c(=O)cnc6cccc4c65)OC3=O)cc2N1 [Example 55, (S)-6-{2-[(S)-2-oxo-3-(3-oxo-3,4-dihydro-2H-benzo[1,4]thiazin-6-yl)-oxazolidin-5-yl]-ethylamino}-5,6-dihydro-pyrrolo[1,2,3-de]quinoxalin-3-one]
  MIC: ≤ 0.031 µg/mL

## O=C1COc2ccc(N3C[C@@H](CCCN[C@@H]4Cn5c(=O)cnc6ccc(F)c4c65)OC3=O)cc2N1 [Example 57, (S)-7-fluoro-6-{3-[(R)-2-oxo-3-(3-oxo-3,4-dihydro-2H-benzo[1,4]oxazin-6-yl)-oxazolidin-5-yl]-propylamino}-5,6-dihydro-pyrrolo[1,2,3-de]quinoxalin-3-one]
  MIC: ≤ 0.031 µg/mL

## O=C1CSc2ccc(N3C[C@@H](CCCN[C@@H]4Cn5c(=O)cnc6ccc(F)c4c65)OC3=O)cc2N1 [Example 58, (S)-7-fluoro-6-{3-[(R)-2-oxo-3-(3-oxo-3,4-dihydro-2H-benzo[1,4]thiazin-6-yl)-oxazolidin-5-yl]-propylamino}-5,6-dihydro-pyrrolo[1,2,3-de]quinoxalin-3-one]
  MIC: ≤ 0.031 µg/mL

## O=C1CSc2ccc(N3C[C@@H](CCCN[C@H]4Cn5c(=O)cnc6cccc4c65)OC3=O)cc2N1 [Example 64, (R)-6-{3-[(R)-2-oxo-3-(3-oxo-3,4-dihydro-2H-benzo[1,4]thiazin-6-yl)-oxazolidin-5-yl]-propylamino}-5,6-dihydro-pyrrolo[1,2,3-de]quinoxalin-3-one]
  MIC: ≤ 0.031 µg/mL

## O=C1COc2ccc(N3C[C@@H](CCCN[C@H]4Cn5c(=O)cnc6cccc4c65)OC3=O)cc2N1 [Example 65, (R)-6-{3-[(R)-2-oxo-3-(3-oxo-3,4-dihydro-2H-benzo[1,4]oxazin-6-yl)-oxazolidin-5-yl]-propylamino}-5,6-dihydro-pyrrolo[1,2,3-de]quinoxalin-3-one]
  MIC: ≤ 0.031 µg/mL

## O=C1CSc2ccc(N3C[C@@H](CCCN(CCO)[C@@H]4Cn5c(=O)cnc6ccc(F)c4c65)OC3=O)cc2N1 [Example 66, (S)-7-fluoro-6-((2-hydroxy-ethyl)-{3-[(R)-2-oxo-3-(3-oxo-3,4-dihydro-2H-benzo[1,4]thiazin-6-yl)-oxazolidin-5-yl]-propyl}-amino)-5,6-dihydro-pyrrolo[1,2,3-de]quinoxalin-3-one]
  MIC: ≤ 0.031 µg/mL

## O=C1COc2ccc(N3C[C@@H](CCCN(CCO)[C@@H]4Cn5c(=O)cnc6ccc(F)c4c65)OC3=O)cc2N1 [Example 67, (S)-7-fluoro-6-((2-hydroxy-ethyl)-{3-[(R)-2-oxo-3-(3-oxo-3,4-dihydro-2H-benzo[1,4]oxazin-6-yl)-oxazolidin-5-yl]-propyl}-amino)-5,6-dihydro-pyrrolo[1,2,3-de]quinoxalin-3-one]
  MIC: ≤ 0.063 µg/mL

## O=C1COc2ccc(N3C[C@@H](CCCN[C@@H]4Cn5c(=O)cnc6ccc(F)c4c65)OC3=O)nc2N1 [Example 71, (S)-7-fluoro-6-{3-[(R)-2-oxo-3-(3-oxo-3,4-dihydro-2H-pyrido[3,2-b][1,4]oxazin-6-yl)-oxazolidin-5-yl]-propylamino}-5,6-dihydro-pyrrolo[1,2,3-de]quinoxalin-3-one]
  MIC: ≤ 0.031 µg/mL

## O=C1CSc2ccc(N3C[C@@H](CCCN[C@@H]4Cn5c(=O)ccc6cccc4c65)OC3=O)cc2N1 [Example 72, (S)-1-{3-[(R)-2-oxo-3-(3-oxo-3,4-dihydro-2H-benzo[1,4]thiazin-6-yl)-oxazolidin-5-yl]-propylamino}-1,2-dihydro-pyrrolo[3,2,1-ij]quinolin-4-one]
  MIC: ≤ 0.031 µg/mL

## O=C1COc2ccc(N3C[C@@H](CCCN[C@@H]4Cn5c(=O)ccc6cccc4c65)OC3=O)cc2N1 [Example 73, (S)-1-{3-[(R)-2-oxo-3-(3-oxo-3,4-dihydro-2H-benzo[1,4]oxazin-6-yl)-oxazolidin-5-yl]-propylamino}-1,2-dihydro-pyrrolo[3,2,1-ij]quinolin-4-one]
  MIC: ≤ 0.031 µg/mL

## O=C1COc2ccc(N3C[C@@H](CCCN[C@@H]4Cn5c(=O)ccc6cccc4c65)OC3=O)nc2N1 [Example 74, (S)-1-{3-[(R)-2-oxo-3-(3-oxo-3,4-dihydro-2H-pyrido[3,2-b][1,4]oxazin-6-yl)-oxazolidin-5-yl]-propylamino}-1,2-dihydro-pyrrolo[3,2,1-ij]quinolin-4-one]
  MIC: ≤ 0.031 µg/mL

## O=C1COc2ccc(N3C[C@@H](CCCN[C@H]4Cn5c(=O)cnc6cccc4c65)OC3=O)nc2N1 [Example 75, (R)-6-{3-[(R)-2-oxo-3-(3-oxo-3,4-dihydro-2H-pyrido[3,2-b][1,4]oxazin-6-yl)-oxazolidin-5-yl]-propylamino}-5,6-dihydro-pyrrolo[1,2,3-de]quinoxalin-3-one]
  MIC: ≤ 0.031 µg/mL

## O=C1CSc2ccc(N3C[C@@H](CCNC[C@H]4Cn5c(=O)ccc6nccc4c65)OC3=O)cc2N1 [Example 76, (S)-4-({2-[(R)-2-oxo-3-(3-oxo-3,4-dihydro-2H-benzo[1,4]thiazin-6-yl)-oxazolidin-5-yl]-ethylamino}-methyl)-4,5-dihydro-pyrrolo[3,2,1-de][1,5]naphthyridin-7-one]
  MIC: ≤ 0.031 µg/mL
